Measurements published in US8759367B2, “Compounds and methods for the prevention and treatment of cancer” (The Wistar Institute, priority 2010, dated 2014).

Test system: GLI1-driven reporter activity mediated by exogenous SHH (Shh-light2 cells)
Test: GLI-dependent firefly luciferase reporter assay in Shh-light2 cells treated with SHH
Format: cell-based
Conditions: AKI0532 5, 2.5 or 1 μM in DMSO, alone (−SHH) or with SHH (+SHH), 2 days, FIG. 1
Protocol: Shh-light2 cells (3T3 clone stably transfected with a GLI-dependent firefly luciferase plasmid) were treated with carrier DMSO as control or AKI0532 (5, 2.5, or 1 μM in DMSO) either alone (−SHH) or in combination with SHH (+SHH) for 2 days.
For example, AKI0532 analogs shown in Table 1 can be subjected to a battery of tests that are commonly used to assess effects on SHH activity and to determine specificity. As exemplified herein for AKI0532, one screen involves examining the activation of the SHH pathway using the well-established cell line, SHH-Light2 cells. This cell line is a 3T3 clone that stably expresses a GLI-dependant firefly luciferase (Taipale, et al. (2000) Nature 406:1005-1009). […] Concentrations of each compound, ranging from 20 μM to 1 μM, can be tested. SHH-Light2 cells are seeded 24 hours prior to treatment. They were then cultured for an additional 48 hours in standard serum-containing media prior to analysis. GLI-binding site luciferase activities are measured using a commercially available luciferase reporter assay system. Treatment of SHH-Light2 cells with recombinant SHH (200 ng) results in strong induction of reporter activity. IC50 values are determined and are compared to that of AKI0532 in the same assay in order to assess which of the AKI0532 analogs have the highest levels of SHH inhibitory activity.

## C[C@]12CCC(c3ccc(O)cc3)=CC1=CC[C@@]21Cc2ncccc2O1 [AKI0532]
  GLI1-driven reporter activity mediated by exogenous SHH: inhibits GLI1-driven reporter activity mediated by exogenous SHH
